Experiments:
[1] = test system: MCF7 cells, MDA-MB-231 cells, T47D cells; test: Senescence assay: β-galactosidase activity; type: cell-based; conditions: various concentrations
Excerpt: (A) MCF7 cells. (B) MDA-MB-231 cells. (C) T47D cells.
Because an arrested state in which the cell remains viable, are not stimulated to divide by serum or passage in culture, a specific cell cycle profile is illicited that differs from most damage-induced arrest processes or contact inhibition. Characteristics of senescence cells include an enlarged cell size, expression of pH-dependent β-galactosidase activity, and an altered pattern of gene expression. To determine these characteristics, CTC cells were cultured with a compound of Formula II or cx-4945 (Silmitasertib) at various concentrations and β-galactosidase activity was measured.

[2] = test system: breast cancer circulating tumor cell (CTC); test: Breast cancer CTC growth screen; type: cell-based, human; conditions: added at 1 uM
Method: Using the assay system described herein CTC were contact with a panel of small molecule drugs and the effect of the drugs on cell growth, migration, proliferation and gene expression was measured. […] This was initially found in a breast cancer circulating tumor cell (CTC) growth screen.

[3] = test system: single CTCs from 4 patient-derived CTC lines (BRx07, BRx42, BRx50, and BRx68); test: Validation of candidate compounds: single CTC proliferation over 24 days (AUC); type: cell-based, human
Method: (§1) Cell culture. CTC lines were previously derived from metastatic breast cancer patients. CTC lines were cultured in ultra-low attachment plates with RPMI 1640 medium, supplemented with EGF (20 ng/mL), bFGF (20 ng/mL), 1×B27 and 1× antibiotic/antimycotic, in 4% 02 and 5% CO2. Single CTCs were cultured in GravityTRAP™ ULA 96 well Plates (PerkinElmer). Wells on the edges of the plates were not used to avoid influence from evaporation. Media with fresh compounds were exchanged every 3 days by inserting pipet tips onto the platform of the wells to prevent accidentally aspirating suspended CTCs at the bottom. CTC numbers were counted manually under an inverted microscope every 6 days.
FACS sorting. Cells were pelleted and resuspended into single cell suspension in 1% BSA in PBS buffer with 7-AAD. Live single CTCs were sorted directly into 96-well GravityTRAP™ ULA Plates using a MoFlo cell sorter (Beckman Coulter). An inverted microscope was used to manually confirm that there was 1 CTC per well, 1 hour after sorting.
Compounds screening. Compounds were from the StemSelect library obtained from the Choi Family Therapeutic Screening Facility at the Eli and Edythe Broad CIRM Center for Regenerative Medicine and Stem Cell Research at USC. Each compound was given a code to ensure unbiased assessment and blinded to the investigators. Compound information is listed in Appendix, at Table 1 of US Provisional Application No. U.S. 62/990,445, incorporated herein by reference). In the first-round screening, compounds were used with […] concentration. Stocks of compounds (10 mM concentration in DMSO) were stored in aliquots at −80° C. All compounds were thawed and refrozen for a maximum of 2 times. In the second-round validation, fresh compounds were dissolved in DMSO (Millipore sigma), and aliquots were stored at −20° C. and used only once without refreezing. Only wells started from single cells on day 0 after sorting were used in the screening experiment. Data collection was done in batches.
(§2) Statistical analysis. […] AUC was calculated for each well in each batch, by plotting days in the x-axis and the corresponding number of cells in the y-axis, then drawing a line to connect the number of cells from the starting count day to the next count day until the end day, and finally calculating the area under this line as the sum of areas of trapezoids. […] Statistical tests were performed using R. For absolute number of cells quantification, total number of cells at end of experiment in each well in each batch was compared between treated cells and untreated control and significance was analyzed with Student t test. For other experiments, data were analyzed with Student t test, and represent the means±SEM of at least triplicate samples or averages ±SD of independent analyses, as indicated. […]

BRx42 = test: Single CTC proliferation over 24 days (AUC), BRx42 line; type: cell-based, human
Method: as §1
(§3) FACS sorting. […]
as §2, with “test.” for “test. For other experiments, data were analyzed with Student t test, and represent the means±SEM of at least triplicate samples or averages ±SD of independent analyses, as indicated.”

BRx68-GFP+ cells = test: RNA-seq analysis of pools of growing single cell clones; type: cell-based, human; conditions: day 6; NAC 0.3 mM, P4D8 1 μM
Method: RNA-seq analysis. BRx68-GFP+ cells were sorted, with 1 cell per well, using the MoFlo cell sorter (Beckman Coulter). Single cells were cultured in the presence of CTC media containing either 1 μM of P1C2, P4D8, or P1G7, or 0.3 mM of NAC or a combination of 1 μM of P1C2 and 0.3 mM of NAC. Cells cultured in media containing DMSO served as a control. All cells were cultured for either 6 days or 13 days at 37° C., 5% CO2 and 4% O2, and media was changed every 3 days. For both day 6 and day 13 groups, only clones with more than 3 cells at day 6 were harvested and pooled to a maximum of 50 cells. […] Libraries were sequenced on an Illumina NextSeq500 to obtain 75 bp-long single-end reads.
RNA-sequencing reads were trimmed for Nextera and Illumina adapter sequences using Trim Galore under default parameters. Trimmed reads were then mapped to the human genome build GRCh37 from Ensembl (ftp:/][/ftp.ensembl.org/pub/grch37/current/fasta/homo_sapiens/dna/Homo_sapiens.GRCh37.dna_sm.primary_as sembly.fa.gz) using STAR under optimized parameters for single-end sequenced data. Aligned reads were then counted via feature-Counts and piped into DESeq2 for normalization to sequencing depth and downstream analysis. […]

single BRx68 cells = test: Single CTC proliferation over 24 days (AUC), BRx68 line; type: cell-based, human
Method: as §1, §3
as §2, with “test.” for “test. For other experiments, data were analyzed with Student t test, and represent the means±SEM of at least triplicate samples or averages ±SD of independent analyses, as indicated.”

For `COc1cc(Nc2ncc3ccn(-c4cccc(CCC#N)c4)c3n2)cc(OC)c1OC` [Formula II, 3-(3-(2-(3,4,5-Trimethoxy-phenylamino)-7H-pyrrolo[2,3-d]pyrimidin-7-yl)phenyl)propionitrile], the “induced senescence (β-galactosidase activity) relative to CX-4945” value [1] was 3-4 fold, the CTC growth [2] was “stopped growing” and the “proliferation of single CTCs (AUC measurement)” value ([3]; 4 different CTC lines over 24 days) was “inhibition of the proliferation”.

For `N#C/C(=C\c1ccc(-c2cc(Cl)ccc2Cl)o1)C(=O)Nc1cccc2ncccc12` [P1G3, AGK2], the single cell growth (BRx42) was “promote single cell growth”.

`CCNCc1cc(C(C)(C)C)c(O)c(C(C)(C)C)c1` [P4D8, LY 231617] was tested, and the “lipid metabolism pathway enrichment (IPA of differentially expressed genes) compared with control” value (BRx68-GFP+ cells) was “enriched”, the single cell growth (single BRx68 cells) was “promote single cell growth” and the single cell growth ([3]; other lines (than BRx68)) was “inhibit growth”.
